Key:
[1] = tested on: Agarabi CHO (ATCC® CRL-3440™); details: 120 μM added every 48 hrs, 7 day batch culture, CD FortiCHO + 8 mM L-glutamine
Method: For this experiment, a transgenic CHO cell line, Agarabi CHO (ATCC® CRL-3440™), was grown in CD FortiCHO medium supplemented with 8 mM L-glutamine at 37° C., 8% CO2, at a shaking speed of 130 RPM. Batch culture of 6 flasks was maintained for 7 days where 3 flasks represent technical replicates for the control set and 3 flasks represent technical replicates for the treatment set. The flasks were seeded with 3E5 viable cells/mL on day 0 and to induce oxidative stress, hydrogen peroxide was added every 48 hrs to the treatment set with a final concentration of 120 μM. Cell count, cell viability, and heterologous protein production were measured every 2 days and cell pellets were collected for both control and treatment set on day 7.

[2] = tested on: Agarabi CHO (ATCC® CRL-3440™); details: FDR corrected p-value <0.05 and methylation change greater than 25% between groups; cell pellets day 7
Method: Genomic DNA was purified from the collected cell pellets using DNeasy Blood & Tissue Kit (Qiagen) and was quantified using PicroGreen or NanoDrop™ 2000. The genomic DNA (500 ng) from the control and treatment set were used to prepare libraries for Whole Genome Bisulfite Sequencing (WGBS). The sequencing of the libraries was performed by a third party on a NovaSeq platform which generated 125 GB of data per sample.
Raw sequencing data were conducted quality control (fastqc) 1, sequencing adaptors trimming (TrimGalore) 2, and alignment with Bismark3. CMV promoter combined with CHOK1-GS (Cricetulus griseus) genome was used as a reference genome.
Bismark was also used for removing duplicated reads and extracting methylation counts from alignment output.
Since regulated methylation targets are most commonly clustered into short regions, DMRfinder4 was used to perform a modified single-linkage clustering of methylation sites.
Differential methylation analysis was performed using MethylKit5 between the control and treatment groups. Logistic regression was used to determine the differential methylation across all regions, and the sliding linear model (SLIM) 6 method to do FDR correction.

[3] = tested on: Agarabi CHO (ATCCR CRL-3440™); assay: Adaptation of CHO cells with media supplement, batch culture (cell count, viability, protein production); format: cell-based, Cricetulus griseus; details: 1 mg/L, adapted for 2 weeks, 7 day batch culture, CD FortiCHO + 8 mM L-glutamine
Method: For this experiment, a transgenic CHO cell line, Agarabi CHO (ATCCR CRL-3440™), was adapted for 2 weeks in CD FortiCHO medium supplemented with 8 mM L-glutamine & 1 mg/L human insulin-like growth factor 1 (IGF-1) at 37° C., 8% CO2, at a shaking speed of 130 RPM. Batch culture of 6 flasks was maintained for 7 days where 3 flasks represent technical replicates for the control set (without IGF-1 adaptation) and 3 flasks represent technical replicates for the IGF-1 adapted set. The flasks were seeded with 3E5 viable cells/mL on day 0 and 1 mg/L Insulin Growth Factor was added to the adapted set. Cell count, cell viability, and protein production were measured every 2 days and cell pellets were collected for both control and treatment set on day 7.

[4] = tested on: Agarabi CHO (ATCCR CRL-3440™); assay: WGBS differential methylation analysis, IGF-1 adapted vs control; format: cell-based, Cricetulus griseus; details: FDR corrected p-value <0.05 and methylation change greater than 25% between groups; cell pellets day 7
Method: With a maximum distance between CpG sites of 100 bp, 2048904 genomic regions were found for IGF-1 adapted samples.
Regions with FDR corrected p-value <0.05 and methylation change greater than 25% between groups were determined as differentially methylated regions (DMRs), which was 289 for IGF-1 adapted samples listed in Table 2.

| Compound | cell viability compared to control set [1] | growth rate compared to control set [1] | heterologous protein productivity compared to control set [1] | number of differentially methylated regions (DMRs) [2] | growth rate compared to control set [3] | heterologous protein productivity compared to control set [3] | viability compared to control set [3] | number of differentially methylated regions (DMRs) [4] |
| --- | --- | --- | --- | --- | --- | --- | --- | --- |
| OO [hydrogen peroxide] | reduced | reduced | slight increase | 122 | – | – | – | – |
| IGF-1: human insulin-like growth factor 1, media supplement for CHO cells | – | – | – | – | no significant effect | doubled | no significant effect | 289 |

— patent publication US20260250741A1, “DEVELOPMENT OF CELL MEDIUM AND FEED ON MAMMALIAN CELLS” (Evonik Operations GmbH, priority 2023, published 2026)
